Reference: patent US5116839A, “Use of isoxazolin-3-one derivatives as antidepressants” (Sankyo Company, Limited, priority 1989, dated 1992)
Counter-ions that a name gives are not always drawn.

Experiments:
reserpine-induced ptosis = experiment: Effect on reserpine-induced ptosis in the mouse; assay type: in vivo, mouse (male ddY); conditions: reserpine 2 mg/kg s.c.; for inhibition at 100 mg/kg / inhibition at 30 mg/kg / inhibition at 3 mg/kg / inhibition at 10 mg/kg: Mus musculus, 1.5 h, scored after 90 minutes, read-out: Inhibition rate (antagonism against reserpine-induced ptosis)
Procedure: (§1) The procedure employed in the tests will be explained concretely below:
1. Effect on reserpine-induced ptosis in the mouse
Male ddY mice (4 weeks of age, body weight 22-27 g) were used, divided into the indicated groups each consisting of 3 or 6 animals. The test compounds were dissolved or suspended in an appropriate solvent (physiological saline, 0.5% CMC or 1% dimethylsulfoxide solution) and were orally administered immediately before treatment with reserpine.
The vials containing the test solutions were labeled with coded ciphers and the administration was carried out in randomized order.
The mice were then subcutaneously treated with reserpine at a dose of 2 mg/kg. After 90 minutes, the extent of ptosis was scored. Grading of the score was based on the shape of eye immediately after the mice were taken out from their cages;
0: round eye shape, as normal
The inhibition rate at each dose was calculated from the scores according to the following equation: [formula] The inhibition rate was then scored on the following basis: […]

Acute toxicity, oral = assay type: in vivo; conditions: 300 mg/kg oral in 0.5% CMC, 5 mice, observed 5 days; Compound 36 as its hydrochloride
Procedure: Each of the Compounds 11, 36 (as its hydrochloride), 53, 76, and 87 dissolved in a 0.5% CMC solution was orally administered to 5 mice at a dose of 300 mg/kg. Observations were made for a period of 5 days.

[1] = test system: spontaneous locomotor activities in mice treated with L-DOPA; experiment: Potentiating effect upon spontaneous locomotor activities in mice treated with L-DOPA; assay type: in vivo, mouse (male ddY); conditions: for Average locomotor activities (+/- S.E.): 1 hour, MK-486 20 mg/kg i.p. then L-DOPA i.p.
Procedure: as §1
2. Potentiating effect of compounds upon spontaneous locomotor activities in mice treated with L-DOPA
Male ddY mice (5 weeks old, body weight 30-33 g) were used, after divided into groups each consisting of 5 animals (experiment 1) or 15 animals (experiment 2). The test compounds were prepared as described in the anti-reserpine study, and given orally 20 minutes before administration of MK-486. In control animals, saline was similarly administered. In order to prevent decomposition of L-DOPA at the peripheral site, the mice were intraperitoneally given MK-486 (carbidopa) at a dose of 20 mg/kg and treated intraperitoneally 30 minutes later with L-DOPA. The mice were placed in a cage on a locomotor activity counter (AUTOMEX-11), one-by-one (experiment 1) or 3 mice a cage (experiment 2). Spontaneous locomotor activities were determined for an hour, and the average locomotor activity at each dose was calcultated from 5 counts. The spontaneous locomotor activity in animals treated with the compound was statistically analyzed versus the control group using Student's two-tailed t-test.

[2] = apparently exerted; cited from earlier work
[3] = test system: spontaneous locomotor activities in mice treated with L-5-HTP; experiment: Potentiating effect upon spontaneous locomotor activities in mice treated with L-5-HTP; assay type: in vivo, mouse (male ddY); conditions: 3 mg/kg oral; MK-486 20 mg/kg i.p.; L-5-HTP 100 mg/kg i.p.; 15 mice; 1 hour; saline 2147(+/-334); P <0.01
Procedure: as §1
3. Potentiating effect of compounds upon spontaneous locomotor activities in mice treated with L-5-HTP
Male ddY mice (4 weeks old, body weight 22-25 g) were used, after divided into groups each consisting of 15 mice. Before administration of MK-486 (20 mg/kg, IP), either the test compound formulation or vehicle (control group) was orally administered. At 30 min after administration of […], L-5-HTP (100 mg/kg IP) was injected. Spontaneous locomotor activities were determined from 15 minutes after L-5-HTP. For this determination, 3 mice were placed in a locomotor counter (Automex) for an hour and the total count noted. Five such apparatuses were used for each dose, in order to eliminate different sensitivities of each apparatus. Thus, 15 mice were used in total for each dose. The average count and SE were calculated from the 5 determinations for each dose, and statistically analyzed versus control group using Student's two-tailed t-test.

Structure (SMILES) | Score (antagonism against reserpine-induced ptosis) (reserpine-induced ptosis; 100 mg/kg oral) | inhibition at 100 mg/kg (reserpine-induced ptosis; 100 mg/kg oral) | Survival (acute toxicity) (Acute toxicity, oral) | Symptoms (acute toxicity) (Acute toxicity, oral) | Score (antagonism against reserpine-induced ptosis) (reserpine-induced ptosis; 30 mg/kg oral) | inhibition at 30 mg/kg (reserpine-induced ptosis; 30 mg/kg oral) | other results
OC(COc1cc(-c2ccccc2)on1)CN1CCOCC1 (stereo not drawn) [Compound 36, 3-(2-Hydroxy-3-morpholinopropoxy)-5-phenylisoxazole] | + (71% or more) | 71% | all the mice survived | No particular symptoms were detected | – | – | –
NC(=O)OCC(O)Cn1oc2ccc(Cl)cc2c1=O (stereo not drawn) [Compound 87, 2-(3-Carbamoyloxy-2-hydroxypropyl)-5-chlorobenzoisoxazolin-3-one] | + (71% or more) | 100% | all the mice survived | No particular symptoms were detected | + (71% or more) | 75% | –
O=c1cc(-c2ccc(Cl)cc2)on1CC(O)CN1CCOCC1 (stereo not drawn) [Compound 11, 5-p-chlorophenyl-2-(2-hydroxy-3-morpholinopropyl)-4-isoxazolin-3-one] | – | – | all the mice survived | No particular symptoms were detected | + (71% or more) | 72% | Score (antagonism against reserpine-induced ptosis) (reserpine-induced ptosis; 3 mg/kg oral): ± (41% to 70%); Score (antagonism against reserpine-induced ptosis) (reserpine-induced ptosis; 10 mg/kg oral): ± (41% to 70%); inhibition at 3 mg/kg (reserpine-induced ptosis; 3 mg/kg oral): 50%; inhibition at 10 mg/kg (reserpine-induced ptosis; 10 mg/kg oral): 56%; Spontaneous locomotor activity with treatment of L-DOPA (in words) ([1]; 50 mg/kg): significantly increased; Average locomotor activities (+/- S.E.) ([1]; experiment 1: 50 mg/kg oral, 5 mice one-by-one, control 160(+/-128), P <0.05): 3355(+/-878)
CN(C)CCCN1c2ccccc2CCc2ccccc21 [Imipramine.HCl, reference compound] | – | – | – | – | ± (41% to 70%) | 61% | –
CN(C)CCCN1c2ccccc2CCc2ccccc21 [imipramine, 10,11-dihydro-N,N-dimethyl-5H-dibenz[b,f]azepine-5-propanamine] | – | – | – | – | – | – | Anticholinergic activity of reference (in words) [2]: anticholinergic activity which is apparently exerted
OC(COc1noc(-c2ccccc2)c1Cl)CN1CCOCC1 (stereo not drawn) [Compound 53, 4-Chloro-3-(2-hydroxy-3-morpholino-propoxy)-5-phenylisoxazole] | – | – | all the mice survived | No particular symptoms were detected | ± (41% to 70%) | 55% | –
OC(COc1cc(-c2ccc(Cl)cc2)on1)CN1CCOCC1 (stereo not drawn) [Compound 76, 5-(p-Chlorophenyl)-3-(2-hydroxy-3-morpholinopropoxy)isoxazole] | + (71% or more) | 71% | all the mice survived | No particular symptoms were detected | – | – | –
O=c1cc(-c2ccc(Cl)cc2)on1C[C@@H](O)CN1CCOCC1 [Compound 22, (S)-5-(p-Chlorophenyl)-2-(2-hydroxy-3-morpholinopropyl)isoxazolin-3-one] | – | – | – | – | + (71% or more) | 100% | Score (antagonism against reserpine-induced ptosis) (reserpine-induced ptosis; 3 mg/kg oral): ± (41% to 70%); Score (antagonism against reserpine-induced ptosis) (reserpine-induced ptosis; 10 mg/kg oral): ± (41% to 70%); inhibition at 3 mg/kg (reserpine-induced ptosis; 3 mg/kg oral): 56%; inhibition at 10 mg/kg (reserpine-induced ptosis; 10 mg/kg oral): 81%; Average spontaneous locomotor activity (+/- SE) [3]: 3544(+/-318); Average locomotor activities (+/- S.E.) ([1]; experiment 2: 50 mg/kg oral, 15 mice, 3 mice a cage, control 666(+/-137), P <0.001): 6013(+/-629)
